Values joined by “and” are separate entries in the source; they are usually repeats but may differ in a detail not shown here. Equal values may be shown once. Inconclusive results and toxic doses are left out.
System: L1210 leukemia ip in BDF1 mice, survival T/C
Assay: NCI In Vivo Anticancer Drug Screen. Data for tumor model L1210 Leukemia (intraperitoneal) in B6D2F1 (BDF1) mice
Conditions: higher = longer survival
In short: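 Each compound was tested against a transplantable tumor grown in mice. The endpoint was survival, with treated animals benchmarked against vehicle controls as a simple ratio.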

[1] = endpoint: mean survival time, dose: 100.0 mg/kg/injection, schedule: Q04DX003 (ip), vehicle: Klucel (hydroxypropylcellulose) (HPC)
[2] = endpoint: mean survival time, dose: 200.0 mg/kg/injection, schedule: Q04DX003 (ip), vehicle: Klucel (hydroxypropylcellulose) (HPC)
[3] = endpoint: mean survival time, dose: 400.0 mg/kg/injection, schedule: Q04DX003 (ip), vehicle: Klucel (hydroxypropylcellulose) (HPC)
[4] = endpoint: mean survival time, dose: 100.0 mg/kg/injection, schedule: Q04DX003 (ip), vehicle: saline
[5] = endpoint: mean survival time, dose: 200.0 mg/kg/injection, schedule: Q04DX003 (ip), vehicle: saline
[6] = endpoint: mean survival time, dose: 400.0 mg/kg/injection, schedule: Q04DX003 (ip), vehicle: saline
[7] = endpoint: mean survival time, dose: 100.0 mg/kg/injection, schedule: Q04DX003 (ip), vehicle: saline with Tween-80
[8] = endpoint: mean survival time, dose: 200.0 mg/kg/injection, schedule: Q04DX003 (ip), vehicle: saline with Tween-80
[9] = endpoint: mean survival time, dose: 400.0 mg/kg/injection, schedule: Q04DX003 (ip), vehicle: saline with Tween-80
[10] = endpoint: mean survival time, dose: 100.0 mg/kg/injection, schedule: Q01DX009 (ip), vehicle: saline
[11] = endpoint: mean survival time, dose: 200.0 mg/kg/injection, schedule: Q01DX009 (ip), vehicle: saline
[12] = endpoint: mean survival time, dose: 400.0 mg/kg/injection, schedule: Q01DX009 (ip), vehicle: saline
[13] = endpoint: mean survival time, dose: 400.0 mg/kg/injection, schedule: Q01DX001 (ip), vehicle: saline

## CCC(C(OC(=O)Nc1ccc(Cl)c(Cl)c1)c1ccc(Cl)cc1)C(O)(C(F)(F)F)C(F)(F)F (configuration not stated)
[1]
  T/C: 98 % of control
[2]
  T/C: 100 % of control
[3]
  T/C: 98 % of control

## O=[N+]([O-])c1cc(Cl)cc2c1-c1c(Cl)cc(Cl)cc1C2O (configuration not stated)
endpoint: mean survival time, dose: 100.0 mg/kg/injection, schedule: Q01DX009 (ip), vehicle: Klucel (hydroxypropylcellulose) (HPC)
  T/C: 91 % of control
[1]
  T/C: 104 % of control
endpoint: mean survival time, dose: 200.0 mg/kg/injection, schedule: Q01DX009 (ip), vehicle: Klucel (hydroxypropylcellulose) (HPC)
  T/C: 104 % of control
[2]
  T/C: 103 % of control
[3]
  T/C: 97 % of control

## O=c1ncccn1Cc1ccccc1
endpoint: mean survival time, dose: 100.0 mg/kg/injection, schedule: Q01DX001 (ip), vehicle: Klucel (hydroxypropylcellulose) (HPC)
  T/C: 112 % of control
endpoint: mean survival time, dose: 200.0 mg/kg/injection, schedule: Q01DX001 (ip), vehicle: Klucel (hydroxypropylcellulose) (HPC)
  T/C: 98 % of control
endpoint: mean survival time, dose: 400.0 mg/kg/injection, schedule: Q01DX001 (ip), vehicle: Klucel (hydroxypropylcellulose) (HPC)
  T/C: 107 % of control

## Oc1ccc(N=Nc2ccccc2)c(O)c1.Oc1ccc(N=Nc2ccccc2)c(O)c1.[Cu]
endpoint: mean survival time, dose: 50.0 mg/kg/injection, schedule: Q01DX001 (ip), vehicle: carboxymethylcellulose (CMC)
  T/C: 90 % of control
endpoint: mean survival time, dose: 400.0 mg/kg/injection, schedule: Q01DX001 (ip), vehicle: carboxymethylcellulose (CMC)
  T/C: 87 % of control

## CN1CCN=C1c1ccc(NC(=O)Nc2ccc(NC(=O)Nc3ccc(C4=NCCN4C)cc3)cc2)cc1
endpoint: mean survival time, dose: 6.5 mg/kg/injection, schedule: Q01DX009 (ip), vehicle: other
  T/C: 108 % of control
endpoint: mean survival time, dose: 10.0 mg/kg/injection, schedule: Q01DX009 (ip), vehicle: other
  T/C: 105 % of control
endpoint: mean survival time, dose: 15.0 mg/kg/injection, schedule: Q01DX009 (ip), vehicle: other
  T/C: 118 % of control
endpoint: mean survival time, dose: 22.0 mg/kg/injection, schedule: Q01DX009 (ip), vehicle: other
  T/C: 118 % of control
endpoint: mean survival time, dose: 33.0 mg/kg/injection, schedule: Q01DX009 (ip), vehicle: other
  T/C: 162 % of control
endpoint: mean survival time, dose: 50.0 mg/kg/injection, schedule: Q01DX009 (ip), vehicle: other
  T/C: 227 % of control
endpoint: mean survival time, dose: 50.0 mg/kg/injection, schedule: Q01DX009 (ip), vehicle: saline
  T/C: 191 % of control
endpoint: mean survival time, dose: 75.0 mg/kg/injection, schedule: Q01DX001 (ip), vehicle: other
  T/C: 109 % of control
endpoint: mean survival time, dose: 75.0 mg/kg/injection, schedule: Q01DX009 (ip), vehicle: other
  T/C: 204 % of control
endpoint: mean survival time, dose: 75.0 mg/kg/injection, schedule: Q01DX009 (ip), vehicle: saline
  T/C: 191 % of control
endpoint: mean survival time, dose: 112.0 mg/kg/injection, schedule: Q01DX009 (ip), vehicle: other
  T/C: 111 % of control
endpoint: mean survival time, dose: 112.0 mg/kg/injection, schedule: Q01DX009 (ip), vehicle: saline
  T/C: 197 % of control
endpoint: mean survival time, dose: 150.0 mg/kg/injection, schedule: Q01DX001 (ip), vehicle: other
  T/C: 124 % of control

## COC(=O)c1ccccc1NC(=O)Nc1cccc(OC)c1
endpoint: mean survival time, dose: 100.0 mg/kg/injection, schedule: Q04DX002 (ip), vehicle: Klucel (hydroxypropylcellulose) (HPC)
  T/C: 108 % of control
endpoint: mean survival time, dose: 200.0 mg/kg/injection, schedule: Q04DX002 (ip), vehicle: Klucel (hydroxypropylcellulose) (HPC)
  T/C: 97 % of control
endpoint: mean survival time, dose: 400.0 mg/kg/injection, schedule: Q04DX002 (ip), vehicle: Klucel (hydroxypropylcellulose) (HPC)
  T/C: 105 % of control

## CCOC(=O)c1cccc([N+](=O)[O-])c1I
[4]
  T/C: 93 % of control
[5]
  T/C: 95 % of control
[6]
  T/C: 96 % of control

## CCCN(CCC)C(=O)C1C2C=CC(C2)C1C(=O)N(CCC)CCC (configuration not stated)
[7]
  T/C: 98 % of control
[8]
  T/C: 111 % of control
[9]
  T/C: 98 % of control

## c1cc2cccc3c2c(c1)c1sc2c4cccc5cccc(c54)c2c31
endpoint: mean survival time, dose: 100.0 mg/kg/injection, schedule: Q01DX009 (ip), vehicle: saline with Tween-80
  T/C: 100 % of control
[7]
  T/C: 101 % of control
endpoint: mean survival time, dose: 200.0 mg/kg/injection, schedule: Q01DX009 (ip), vehicle: saline with Tween-80
  T/C: 92 % of control
[8]
  T/C: 90 % of control
endpoint: mean survival time, dose: 400.0 mg/kg/injection, schedule: Q01DX009 (ip), vehicle: saline with Tween-80
  T/C: 89 % of control
[9]
  T/C: 94 % of control

## CCC(C)OC(=O)Nc1cccc(OC(=O)NC(C)C)c1 (configuration not stated)
[7]
  T/C: 96 % of control
[8]
  T/C: 102 % of control
[9]
  T/C: 93 % of control

## c1ccc(CC(Cc2ccccc2)CN2CCCC2)cc1
[10]
  T/C: 94 % of control
[4]
  T/C: 95 % of control
[11]
  T/C: 102 % of control
[5]
  T/C: 94 % of control
[12]
  T/C: 103 % of control
[6]
  T/C: 89 % of control

## CCOC(N)=O
endpoint: mean survival time, dose: 27.0 mg/kg/injection, schedule: Q03HX024 (ip), vehicle: saline
  T/C: 97 % of control
endpoint: mean survival time, dose: 40.0 mg/kg/injection, schedule: Q03HX024 (ip), vehicle: saline
  T/C: 110 % of control
endpoint: mean survival time, dose: 60.0 mg/kg/injection, schedule: Q03HX024 (ip), vehicle: saline
  T/C: 95 % of control
endpoint: mean survival time, dose: 62.6 mg/kg/injection, schedule: Q01DX Z (ip), vehicle: carboxymethylcellulose (CMC)
  T/C: 106 % of control
endpoint: mean survival time, dose: 90.0 mg/kg/injection, schedule: Q03HX024 (ip), vehicle: saline
  T/C: 101 % of control
[10]
  T/C: 102 % of control
[4]
  T/C: 95 % of control
endpoint: mean survival time, dose: 120.0 mg/kg/injection, schedule: Q01DX009 (ip), vehicle: saline
  T/C: 98 % of control
endpoint: mean survival time, dose: 125.0 mg/kg/injection, schedule: Q01DX010 (ip), vehicle: saline
  T/C: 110 % of control and 87 % of control
endpoint: mean survival time, dose: 125.0 mg/kg/injection, schedule: Q01DX Z (ip), vehicle: saline
  T/C: 115 % of control
endpoint: mean survival time, dose: 125.25 mg/kg/injection, schedule: Q01DX Z (ip), vehicle: carboxymethylcellulose (CMC)
  T/C: 101 % of control
endpoint: mean survival time, dose: 135.0 mg/kg/injection, schedule: Q03HX024 (ip), vehicle: saline
  T/C: 110 % of control
endpoint: mean survival time, dose: 180.0 mg/kg/injection, schedule: Q01DX009 (ip), vehicle: saline
  T/C: 102 % of control
endpoint: mean survival time, dose: 188.0 mg/kg/injection, schedule: Q01DX Z (ip), vehicle: saline
  T/C: 100 % of control
[11]
  T/C: 104 % of control
[5]
  T/C: 101 % of control
endpoint: mean survival time, dose: 250.0 mg/kg/injection, schedule: Q01DX010 (ip), vehicle: saline
  T/C: 111 % of control and 112 % of control
endpoint: mean survival time, dose: 250.0 mg/kg/injection, schedule: Q01DX Z (ip), vehicle: saline
  T/C: 94 % of control
endpoint: mean survival time, dose: 250.5 mg/kg/injection, schedule: Q01DX Z (ip), vehicle: carboxymethylcellulose (CMC)
  T/C: 106 % of control
endpoint: mean survival time, dose: 266.0 mg/kg/injection, schedule: Q01DX001 (ip), vehicle: saline
  T/C: 100 % of control
endpoint: mean survival time, dose: 270.0 mg/kg/injection, schedule: Q01DX009 (ip), vehicle: saline
  T/C: 108 % of control
endpoint: mean survival time, dose: 280.0 mg/kg/injection, schedule: Q02DX010 (ip), vehicle: carboxymethylcellulose (CMC)
  T/C: 109 % of control
endpoint: mean survival time, dose: 375.0 mg/kg/injection, schedule: Q01DX Z (ip), vehicle: saline
  T/C: 110 % of control
[13]
  T/C: 119 % of control
[12]
  T/C: 107 % of control and 110 % of control
[6]
  T/C: 100 % of control
endpoint: mean survival time, dose: 500.0 mg/kg/injection, schedule: Q01DX010 (ip), vehicle: saline
  T/C: 123 % of control
endpoint: mean survival time, dose: 500.0 mg/kg/injection, schedule: Q01DX Z (ip), vehicle: saline
  T/C: 105 % of control
endpoint: mean survival time, dose: 501.0 mg/kg/injection, schedule: Q01DX Z (ip), vehicle: carboxymethylcellulose (CMC)
  T/C: 108 % of control
endpoint: mean survival time, dose: 600.0 mg/kg/injection, schedule: Q01DX001 (ip), vehicle: saline
  T/C: 121 % of control
endpoint: mean survival time, dose: 600.0 mg/kg/injection, schedule: Q01DX009 (ip), vehicle: saline
  T/C: 98 % of control
endpoint: mean survival time, dose: 750.0 mg/kg/injection, schedule: Q01DX Z (ip), vehicle: saline
  T/C: 103 % of control
endpoint: mean survival time, dose: 1000.0 mg/kg/injection, schedule: Q01DX010 (ip), vehicle: saline
  T/C: 94 % of control
endpoint: mean survival time, dose: 1000.0 mg/kg/injection, schedule: Q01DX Z (ip), vehicle: saline
  T/C: 105 % of control
endpoint: mean survival time, dose: 1074.0 mg/kg/injection, schedule: Q01DX001 (ip), vehicle: saline
  T/C: 115 % of control
endpoint: median survival time, dose: 125.0 mg/kg/injection, schedule: Q01DX009 (ip), vehicle: saline
  T/C: 100 % of control
endpoint: median survival time, dose: 250.0 mg/kg/injection, schedule: Q01DX009 (ip), vehicle: saline
  T/C: 100 % of control
endpoint: median survival time, dose: 500.0 mg/kg/injection, schedule: Q01DX009 (ip), vehicle: saline
  T/C: 100 % of control and 110 % of control
endpoint: median survival time, dose: 1000.0 mg/kg/injection, schedule: Q01DX009 (ip), vehicle: saline
  T/C: 87 % of control

## O=C1NCC(CCl)O1 (configuration not stated)
endpoint: mean survival time, dose: 100.0 mg/kg/injection, schedule: Q01DX001 (ip), vehicle: saline
  T/C: 101 % of control
endpoint: mean survival time, dose: 200.0 mg/kg/injection, schedule: Q01DX001 (ip), vehicle: saline
  T/C: 91 % of control
[13]
  T/C: 101 % of control

From PubChem BioAssay AID248 (DTP/NCI, 2004)
